{
  "source": "patent EP0277611A2",
  "about": "“Alkyl-substituted N-benzopyranyl lactames, process for their preparation, their use and pharmaceutical preparations on the basis of these compounds” (HOECHST AKTIENGESELLSCHAFT, priority 1987, dated 1988)",
  "key": {"Meerschweinchen-Ureteren": {"tested_on": "Meerschweinchen-Ureteren", "test": "Influence on KCl-induced rhythmic contractions of isolated guinea pig ureters in vitro", "format": "cell-based", "details": "10⁻⁷ mol/l test substance, KCl 4 x 10⁻² mol/l, mean ± SEM; for inhibition at 0.1 µM: Cavia porcellus", "from_the_text": "Beeinflussung der KCl-induzierten rhythmischen Kontraktionen an Meerschweinchen-Ureteren in vitro\nMännliche Meerschweinchen wurden durch Nackenschlag und Entbluten aus den Carotiden getötet. Die beiden Ureteren wurden sofort entnommen, wobei der Bereich nahe dem Nierenkelch wegen der dort vorhandenen Schrittmacher-Aktivität gemieden wurde. 2 cm lange Stücke wurden zunächst in einer Petrischale, die Tyrode-Lösung enthielt, von Bindegewebe befreit und dann jeweils mit einer Vorspannung von 4,9 mN (=0,5 p) in ein 25 ml-Organbad (Fa. Rhema Labortechnik, Hofheim) gehängt. Das Organbad enthielt eine auf 37° gehaltene und mit Carbogen (95 % O₂, 5 % CO₂) durchperlte Tyrodelösung mit folgender Zusammensetzung (mmol/l): NaCl 137, KCl 2,68, MgSO₄ 1,05, CaCl₂ 1,8, NaH₂PO₄ 0,41, NaHCO₃ 11,9, Glucose 5,55. Die Kontraktionen wurden isometrisch gemessen unter Verwendung von Gould/Statham UC2 Gebern. Nach einer Äquiilibrierungszeit von mindestens 15 Minuten wurde KCl in das Organbad zugegeben, wobei eine Konzentration von 4 x 10⁻² mol/l erreicht wurde. Der Agonist wurde 2 Minuten im Bad belassen, wobei phasische Kontraktionen auftraten, ohne einen nennenswerten Anstieg der Grundspannung zu bewirken.\nDanach wurde 1 Minute ausgespült, woraufhin die rhythmischen Kontraktionen sofort aufhörten. Nach einem zweiten Durchgang von Agonistgabe und Spülvorgang wurde die Prüfsubstanz (Benzopyran-Derivat) in das Organbad zugegeben (in Form einer Lösung in 0,1 ml Ethanol, die Endkonzentrationen betrugen in allen Fällen 10⁻⁷ mol/l) und eine Einwirkungszeit von einer Minute abgewartet, bevor KCl zugesetzt wurde. An den folgenden Spülvorgang schlossen sich zwei abschließende Agonistgabe/Spülgänge an. Von den jeweils zweiminütigen Perioden unter KCl-Einwirkung wurden folgende Parameter bestimmt: 1. mittlere Kontraktionskraft, 2. Frequenz der Kontraktionen und 3. Produkt aus mittlerer Kontraktionskraft und Frequenz. Ausschlußkriterien waren mittlere Kontraktionskräfte unter 4 mN oder Frequenzen unter 2/min bei mehr als einer der vier Perioden, bei denen nur der Agonist KCl im Bad vorhanden war. Ausgewertet wurde die prozentuale Hemmung unter Prüfsubstanz im Vergleich zum gemittelten Wert aus den beiden Vorläufen.\nNeben dem arithmetischen Mittelwert (x) wurde der Standardfehler des Mittelwerts (SEM) errechnet."}, "arteriellen Blutdruck": {"tested_on": "arteriellen Blutdruck", "test": "Effect on arterial blood pressure in anaesthetised normotensive rats (ED25 from minima of blood pressure curves)", "format": "in vivo, männlichen Sprague-Dawley Ratten", "details": "Rattus norvegicus, anaesthetised (Nembutal 70 mg/kg i.p.) normotensive rats, from minimum of blood pressure curve, read-out: ED₂₅", "description": "Der Einfluß der Verbindungen auf den arteriellen Blutdruck wurde an narkotisierten normotensiven männlichen Sprague-Dawley Ratten untersucht. Als Betäubungsmittel wurde Nembutal® in einer Dosis von 70 mg/kg i.p. verwendet. Die Blutdruckmessung erfolgte mittels Katheter in der Arteria carotis mit einem Druckwandler (Statham P 23 Db). Für die i.v. Applikation wurden die Substanzen in Dimethylsulfoxid gelöst und mit Wasser verdünnt. Die Konzentration der Stammlösung war 1mg/ml, wobei die Lösung 15 % Dimethylsulfoxid enthielt. Anteile dieser Stammlösung wurden für die Injektion jeweils frisch mit Wasser verdünnt.\nEs kamen Konzentrationen von 50 (100), 30 (30) und 10 (10) µg/ml für die i.v. Applikation, 100 (100), 50 (60) und 30 (30) µg/ml für die i.d. Applikation zur Anwendung. Die angegebenen Zahlen beziehen sich dabei auf das Experiment a), die in Klammern angegebenen Zahlen auf Experiment b).\nDie Blutdruckmessung wurde nach 0; 0,2; 0,4; 1; 2; 3; 10; 15 und 30 min. nach der i.v. Applikation sowie nach 0; 1; 3; 5; 10; 15; 20; 30; 40; 50 und 60 min. nach der i.d. Applikation vorgenommen. Die ED₂₅ Werte wurden aus dem Minima der jeweiligen Blutdruckkurven bestimmt. • a) (±)-(3R*, 4S*, 5ʹS*)-6-Cyano-3,4-dihydro-2,2-dimethyl-4-(2ʹ-oxo-5ʹ-methyl-1ʹ-pyrrolidinyl)-2H-benzo[b]pyran-3-ol (Verbindung aus Beispiel 1): ED₂₅= 19 µg/kg (i.v.) ED₂₅=42 µg/kg (i.d.) • b) (±)-6-Cyano-3,4-dihydro-2,2-dimethyl-trans-4-(2-oxo-1-pyrrolidinyl-2H-benzo[b]pyran-3-ol (Beispiel aus J. Med. Chem. 1986, 29, 2194-2201) ED₂₅= 42 µg/kg (i.v.) ED₂₅= 82 µg/kg (i.d.)"}, "[1]": {"details": "percent inhibition of product of mean contraction force and frequency, read-out: k·v [%]"}, "[2]": {"details": "percent inhibition vs mean of the two pre-runs, read-out: Frequenz v [%]"}, "[3]": {"details": "percent inhibition vs mean of the two pre-runs, read-out: mittlere Kontraktionskraft k [%]"}, "[4]": {"details": "percent inhibition vs mean of the two pre-runs, 0.1 µM"}},
  "note": "Read-outs that look alike come from different tables or passages of the source.",
  "data": [
    {"smiles": "C[C@@H]1CCC(=O)N1[C@H]1c2cc(C#N)ccc2OC(C)(C)[C@@H]1O", "note": "[(-)-(3R, 4S, 5ʹR)-6-Cyano-3,4-dihydro-2,2-dimethyl-4-(2ʹ-oxo-5ʹ-methyl-1ʹ-pyrrolidinyl)-2H-benzo[b]pyran-3-ol]", "values": [
      {"measurement": "inhibition at 0.1 µM", "setting": "Meerschweinchen-Ureteren; [1]", "value": "96 ± 2", "unit": "%"},
      {"measurement": "inhibition at 0.1 µM", "setting": "Meerschweinchen-Ureteren; [2]", "value": "89 ± 4", "unit": "%"},
      {"measurement": "inhibition at 0.1 µM", "setting": "Meerschweinchen-Ureteren; [3]", "value": "75 ± 8", "unit": "%"}
    ]},
    {"smiles": "C[C@@H]1CCC(=O)N1[C@H]1c2cc(C#N)ccc2OC(C)(C)[C@@H]1O", "note": "(racemic) [±)-(3R^*,4S^*,5'R^*)-6-Cyano-3,4-dihydro-2,2-dimethyl-4-(2'-] [(3R*, 4S*, 5ʹR*)-6-Cyano-3,4-dihydro-2,2-dimethyl-4-[2ʹ-oxo-5ʹ-methyl-1ʹ-pyrrolidinyl)-2H-benzo[b]pyran-3-ol]", "values": [
      {"measurement": "k·v [%]", "setting": "Meerschweinchen-Ureteren; percent inhibition of product of mean contraction force and frequency, 0.1 µM", "value": "96 ± 1", "unit": "%"},
      {"measurement": "Frequenz v [%]", "setting": "Meerschweinchen-Ureteren; [4]", "value": "86 ± 4", "unit": "%"},
      {"measurement": "mittlere Kontraktionskraft k [%]", "setting": "Meerschweinchen-Ureteren; [4]", "value": "69 ± 11", "unit": "%"}
    ]},
    {"smiles": "CC1(C)Oc2ccc(C#N)cc2C(N2CCCC2=O)C1O", "note": "(racemic) [(±)-6-Cyano-3,4-dihydro-2,2-dimethyl-trans-4-(2-oxo-1-pyrrolidinyl-2H-benzo[b]pyran-3-ol, reference compound]", "values": [
      {"measurement": "inhibition at 0.1 µM", "setting": "Meerschweinchen-Ureteren; [1]", "value": "61 ± 7", "unit": "%"},
      {"measurement": "inhibition at 0.1 µM", "setting": "Meerschweinchen-Ureteren; [2]", "value": "58 ± 5", "unit": "%"},
      {"measurement": "inhibition at 0.1 µM", "setting": "Meerschweinchen-Ureteren; [3]", "value": "8 ± 8", "unit": "%"},
      {"measurement": "ED25", "setting": "arteriellen Blutdruck; iv", "value": 0.042, "unit": "mg/kg"},
      {"measurement": "ED25", "setting": "arteriellen Blutdruck; i.d.", "value": 0.082, "unit": "mg/kg"}
    ]},
    {"smiles": "C[C@H]1CCC(=O)N1[C@H]1c2cc(C#N)ccc2OC(C)(C)[C@@H]1O", "note": "(racemic) [(3R*, 4S*, 5ʹS*)-6-Cyano-3,4-dihydro-2,2-dimethyl-4-[2ʹ-oxo-5ʹ-methyl-1ʹ-pyrrolidinyl]-2H-benzo[b]pyran-3-ol]", "values": [
      {"measurement": "ED25", "setting": "arteriellen Blutdruck; iv", "value": 0.019, "unit": "mg/kg"},
      {"measurement": "ED25", "setting": "arteriellen Blutdruck; i.d.", "value": 0.042, "unit": "mg/kg"}
    ]}
  ]
}
